Test results published in patent US8507529B2, “Methods of using a nitroxide antioxidant in cosmetic and dermatological compositions” (Jarrow Formulas, Inc., priority 2005, dated 2013).

Tests used:
[1] = Optical absorption spectra before and after UVA exposure (photostability); assay type: physicochemical; conditions: 100 μM in phosphate buffer pH 7.4, 275 kJ/m^2 UVA, ethyl acetate extraction, FIG. 3
Method: FIG. 3. […] See Detailed Description for experimental details.
The reason for using buffer was to maintain the same medium as the peroxidation experiments so that comparisons between the optical absorption experiments and lipid peroxidation could be meaningful.
10 mM Stock solutions of TEMPOL and the photoactive ingredients were prepared in acetonitrile. […] The solutions were then transferred to a 24 multi-well plate for cell cultures (Orange Scientific, Cambrex BioScience, Walkerville, Inc.) which was placed on a brass block embedded on ice at a distance of 20 cm from the light source. […] After illumination, 2.4 ml of sample were collected from each well and extracted with the same volume of ethyl acetate. The organic phase was separated and its absorption spectrum was then run on a UV Kontron 941 spectrophotometer. For the non-illuminated samples, the same procedure was followed for the same length of time except that the samples were exposed to direct artificial laboratory working light.

[2] = Peroxidation of multilamellar phosphatidylcholine (PC) liposomes induced by UVA, TBA assay (TBARS); conditions: 3.5 mM PC liposomes, 275 kJ/m^2 UVA; for level of UVA-induced lipid peroxidation (TBARS absorbance): 100 μM compounds alone or combined, FIG. 4
[3] = Absorption spectra of 50 μM compounds in acetonitrile; assay type: physicochemical; conditions: 50 μM in acetonitrile, FIG. 2
Method: FIG. 2. Absorption spectra of 50 μM compounds in acetonitrile.

human dermal fibroblasts = conditions: cited from earlier work
[4] = tested on: transgenic murine fibroblast culture; conditions: transgenic murine fibroblast culture model of cutaneous photoaging; cited from earlier work

| Compound | change in spectral absorption after UVA exposure [1] | level of UVA-induced lipid peroxidation (TBARS absorbance) [2] | other results |
| --- | --- | --- | --- |
| 2,2,6,6-tetramethyl-piperidin-4-yl-p-methoxy cinnamyloxy-1-oxyl [MC-NO] | retains the majority of its original absorbance | greatly reduced to almost control levels | spectral profile and extinction coefficient [3]: same spectral profile and extinction coefficient as OMC |
| CCCCC(CC)COC(=O)C=Cc1ccc(OC)cc1 (centres unmarked) [OMC, 2-ethylhexyl-4-methoxycinnamate] | strong decrease in spectral absorption | seems to protect | – |
| COc1ccc(C(=O)CC(=O)c2ccc(C(C)(C)C)cc2)cc1 [Parsol 1789, 4-tert-butyl-4′-methoxydibenzoylmethane] | – | – | level of UVA-induced lipid peroxidation (TBARS absorbance) with Parsol 1789 ([2]; 100 μM Parsol 1789 alone or combined with 100 μM compound, FIG. 5): significant increase |
| CC1(C)CC(O)CC(C)(C)N1[O] [TEMPOL, 4-hydroxy-2,2,6,6,-tetramethyl-piperidine-1-oxyl] | – | – | protection against UV radiation (human dermal fibroblasts): affords protection against UV radiation; protection against UV radiation [4]: affords protection against UV radiation |
